Results from patent publication US9174939B2, “Soft rock inhibitors” (Amakem NV, priority 2011, dated 2015).

Columns and labels:
[1] = target: ROCK II (Homo sapiens, UniProt O75116); experiment: Kinase inhibition (ROCKI or ROCKII), 33P-ATP filter assay; assay type: biochemical; settings: 120 min at room temperature
Procedure: C.1.1. Kinase inhibition (ROCKI or ROCKII)
Base Reaction buffer; 20 mM Hepes (pH 7.5), 10 mM MgCl2, 1 mM EGTA, 0.02% Brij35, 0.02 mg/ml BSA, 0.1 mM Na3VO4, 2 mM DTT, 1% DMSO—Required cofactors are added individually to each kinase reaction • Reaction Procedure: • 1. Prepare indicated substrate in freshly prepared Base Reaction Buffer • 2. Deliver any required cofactors to the substrate solution above • 3. Deliver indicated kinase into the substrate solution and gently mix • 4. Deliver compounds in DMSO into the kinase reaction mixture • 5. Deliver ^33P-ATP (specific activity 0.01 μCi/μl final) into the reaction mixture to initiate the reaction. • 6. […] Wash filters extensively in 0.1% Phosphoric acid.

[2] = system: MLC-T18/S19 phosphorylation by endogenous ROCK in A7r5 cells; experiment: Myosin Light Chain Phosphorylation assay (ELISA, A7r5 cells); assay type: cell-based; settings: A7r5 rat smooth muscle cells, serum-free medium, phospho-MLC-T18/S19 ELISA
Procedure: C.1.4. Myosin Light Chain Phosphorylation assay
Rat smooth muscle cell line A7r5 is used. The endogenous expression of ROCK results in a constitutive phosphorylation of the regulatory myosin light chain at T18/S19. A7r5 cells were plated in DMEM supplemented with 10% FCS in multiwall cell culture plates. After serum starvation overnight, cells were incubated with compounds in serum-free medium.
Quantification of MLC-T18/S19 phosphorylation is assessed in 96 well-plates via ELISA using a phspho-MLC-T18/S19 specific antibody and a secondary detection antibody. Raw data were converted into percent substrate phosphorylation relative to high controls, which were set to 100%. IC50 values were determined using GraphPad Prism 5.01 software using a nonlinear regression curve fit with variable hill slope.

[3] = Stability assay in rabbit aqueous humor; assay type: in vitro ADME; settings: 1 μM in rabbit aqueous humor, LC-MS/MS; read-out: t½ Rabbit AH
Procedure: C.2.3. Stability Assay in Rabbit Aqueous Humor
Compounds are incubated at a concentration of 1 μM in rabbit aqueous humor (AH). Samples are taken at fixed time points and the remnant of compound is determined by LC-MS/MS after protein precipitation.

[4] = Stability assay in human plasma; assay type: in vitro ADME; settings: 1 μM compound in human plasma, LC-MS/MS; read-out: t½ human plasma
Procedure: C.2.1. Stability Assay in Human and/or Rat Plasma
Compounds are incubated at a concentration of 1 μM in rat (mice, dog, monkey, minipig or rabbit) or human plasma. Samples are taken at fixed time points and the remnant of compound is determined by LC-MS/MS after protein precipitation. Half life is expressed in minutes.

[5] = Stability towards drug metabolizing enzymes in lung S9; assay type: in vitro ADME; settings: human, lung S9 (from smokers) with NADPH, UDPGA, PAPS and GSH, read-out: t½ human lung S9
Procedure: C.2.2. Stability Towards Drug Metabolizing Enzymes in Lung S9
A 1 μM solution of the ROCK inhibitors is incubated with a reaction mixture containing lung S9 (from smokers) as well as the cofactors NADPH, UDPGA, PAPS and GSH. Samples are collected at 0, 15, 30 and 60 minutes post incubation. Negative control samples incubated with ROCK inhibitors and S9 fraction in the absence of cofactors are run in parallel. By using LC-MS/MS analysis, the percent of ROCK compounds remaining at each time point, the metabolic half-life of the ROCK compounds (expressed in minutes) and the metabolic half-life of the control compounds are determined.

Sequence of ROCK II (O75116 whole entry): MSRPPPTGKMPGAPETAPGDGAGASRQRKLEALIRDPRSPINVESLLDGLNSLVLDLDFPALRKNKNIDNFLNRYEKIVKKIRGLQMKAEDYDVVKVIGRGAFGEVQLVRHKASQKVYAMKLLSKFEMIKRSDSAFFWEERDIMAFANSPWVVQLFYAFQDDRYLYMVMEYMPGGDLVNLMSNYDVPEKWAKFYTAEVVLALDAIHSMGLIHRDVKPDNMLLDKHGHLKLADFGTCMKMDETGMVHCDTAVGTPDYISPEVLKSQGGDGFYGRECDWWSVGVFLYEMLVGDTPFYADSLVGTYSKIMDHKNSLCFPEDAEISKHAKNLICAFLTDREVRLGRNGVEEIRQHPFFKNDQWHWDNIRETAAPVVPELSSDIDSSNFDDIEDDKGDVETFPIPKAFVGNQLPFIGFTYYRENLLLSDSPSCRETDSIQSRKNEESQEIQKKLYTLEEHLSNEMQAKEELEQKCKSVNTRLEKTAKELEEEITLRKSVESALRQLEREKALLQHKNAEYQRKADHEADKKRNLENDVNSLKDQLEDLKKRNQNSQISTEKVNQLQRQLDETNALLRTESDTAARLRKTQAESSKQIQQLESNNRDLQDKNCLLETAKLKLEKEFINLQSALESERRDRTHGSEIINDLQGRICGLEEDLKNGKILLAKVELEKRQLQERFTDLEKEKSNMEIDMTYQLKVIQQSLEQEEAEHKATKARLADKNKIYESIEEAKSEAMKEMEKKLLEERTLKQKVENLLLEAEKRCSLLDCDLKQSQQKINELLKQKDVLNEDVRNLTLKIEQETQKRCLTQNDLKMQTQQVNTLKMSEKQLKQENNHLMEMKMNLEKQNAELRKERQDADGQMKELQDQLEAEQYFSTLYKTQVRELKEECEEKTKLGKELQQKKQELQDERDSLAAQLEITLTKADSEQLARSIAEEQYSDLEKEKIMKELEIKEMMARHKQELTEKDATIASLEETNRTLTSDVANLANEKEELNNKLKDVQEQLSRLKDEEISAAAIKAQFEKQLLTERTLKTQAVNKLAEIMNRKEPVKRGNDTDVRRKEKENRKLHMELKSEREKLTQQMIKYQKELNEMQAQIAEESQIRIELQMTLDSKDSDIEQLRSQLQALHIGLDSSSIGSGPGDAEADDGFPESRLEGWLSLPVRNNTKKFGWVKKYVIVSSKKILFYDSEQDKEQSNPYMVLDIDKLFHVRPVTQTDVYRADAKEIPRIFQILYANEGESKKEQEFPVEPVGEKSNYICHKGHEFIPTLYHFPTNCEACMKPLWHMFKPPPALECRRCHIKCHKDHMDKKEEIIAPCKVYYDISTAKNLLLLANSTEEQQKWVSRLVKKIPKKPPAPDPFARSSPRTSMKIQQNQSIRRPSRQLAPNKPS

| IC50 [1] | IC50 [2] | SMILES | also measured |
| --- | --- | --- | --- |
| < 10 nM | < 200 nM | COC(=O)c1cccc(NC(=O)c2cccc(-c3cc(C(=O)Nc4ccncc4F)ccc3CN)c2)c1 [Compound 1] | half-life at 1 μM [3]: > 1 h; half-life at 1 μM [4]: < 0.0833 h; half-life at 1 μM [5]: > 0.5 h |
| < 10 nM | < 200 nM | COC(=O)Cc1cccc(NC(=O)c2cccc(-c3cc(C(=O)Nc4ccncc4F)ccc3CN)c2)c1 [Compound 2] |  |
| < 10 nM | < 200 nM | COC(=O)c1ccc(NC(=O)c2cccc(-c3cc(C(=O)Nc4ccncc4F)ccc3CN)c2)cc1 [Compound 3] |  |
| < 10 nM | < 200 nM | COC(=O)Cc1ccc(NC(=O)c2cccc(-c3cc(C(=O)Nc4ccncc4F)ccc3CN)c2)cc1 [Compound 4] |  |
| < 10 nM |  | NCc1ccc(C(=O)Nc2ccncc2F)cc1-c1cccc(NC(=O)c2ccc3c(c2)COC3=O)c1 [Compound 5] | half-life at 1 μM [4]: < 1 h |
| < 10 nM | < 200 nM | COC(=O)c1ccc(F)c(NC(=O)c2cccc(-c3cc(C(=O)Nc4ccncc4F)ccc3CN)c2)c1 [Compound 6] | half-life at 1 μM [4]: < 1 h |
| < 10 nM |  | COC(=O)c1cncc(NC(=O)c2cccc(-c3cc(C(=O)Nc4ccncc4F)ccc3CN)c2)c1 [Compound 7] |  |
| < 10 nM | < 200 nM | CCCOC(=O)c1cccc(NC(=O)c2cccc(-c3cc(C(=O)Nc4ccncc4F)ccc3CN)c2)c1 [Compound 8] | half-life at 1 μM [3]: > 1 h; half-life at 1 μM [4]: < 0.0833 h |
| < 10 nM |  | COC(=O)c1cc(F)cc(NC(=O)c2cccc(-c3cc(C(=O)Nc4ccncc4F)ccc3CN)c2)c1 [Compound 9] |  |
| < 100 nM | < 200 nM | CCCOC(=O)c1cc(F)cc(NC(=O)c2cccc(-c3cc(C(=O)Nc4ccncc4F)ccc3CN)c2)c1 [Compound 10] |  |
| < 10 nM |  | COC(=O)c1csc(NC(=O)c2cccc(-c3cc(C(=O)Nc4ccncc4F)ccc3CN)c2)n1 [Compound 11] |  |
| < 10 nM | < 200 nM | CCCOC(=O)c1ccc(F)c(NC(=O)c2cccc(-c3cc(C(=O)Nc4ccncc4F)ccc3CN)c2)c1 [Compound 12] |  |
| < 10 nM |  | COC(=O)c1ccc(NC(=O)c2cccc(-c3cc(C(=O)Nc4ccncc4F)ccc3CN)c2)cc1C [Compound 13] |  |
| < 10 nM |  | CCOC(=O)c1nnc(NC(=O)c2cccc(-c3cc(C(=O)Nc4ccncc4F)ccc3CN)c2)o1 [Compound 14] |  |
| < 10 nM |  | COC(=O)c1ccc(NC(=O)c2cccc(-c3cc(C(=O)Nc4ccncc4F)ccc3CN)c2)o1 [Compound 15] |  |
| < 10 nM |  | COC(=O)c1ccc(C(=O)Nc2cccc(-c3cc(C(=O)Nc4ccncc4F)ccc3CN)c2)cc1 [Compound 16] |  |
| < 10 nM | < 200 nM | COC(=O)c1cccc(C(=O)Nc2cccc(-c3cc(C(=O)Nc4ccncc4F)ccc3CN)c2)c1 [Compound 17] |  |
| < 10 nM |  | COC(=O)c1ccc(C(=O)Nc2cccc(-c3cc(C(=O)Nc4ccncc4F)ccc3CN)c2)nc1 [Compound 18] |  |
| < 10 nM |  | CCCOC(=O)Cc1cccc(NC(=O)c2cccc(-c3cc(C(=O)Nc4ccncc4F)ccc3CN)c2)c1 [Compound 19] |  |
| < 10 nM |  | COC(=O)c1cc(NC(=O)c2cccc(-c3cc(C(=O)Nc4ccncc4F)ccc3CN)c2)ccc1C [Compound 20] |  |
| < 10 nM |  | CCCOC(=O)c1ccc(NC(=O)c2cccc(-c3cc(C(=O)Nc4ccncc4F)ccc3CN)c2)cc1C [Compound 21] |  |
| < 10 nM |  | CCCOC(=O)c1cc(NC(=O)c2cccc(-c3cc(C(=O)Nc4ccncc4F)ccc3CN)c2)ccc1C [Compound 22] |  |
